Laboratory results from patent publication US20250302846A1, “ANTIBIOTIC COMPOSITION AND METHODS OF USE THEREOF” (THE REGENTS OF THE UNIVERSITY OF COLORADO A BODY CORPORATE, priority 2022, published 2025).
Several values for one entry are separate records, joined by “and”; a condition that tells them apart may be missing. Identical values can stand only once. Like-named read-outs stand apart in the source and are kept apart here.

Legend:
Assay type in all cases: cell-based
[1] = tested on: S. Typhimurium (SL1344); assay: Minimum inhibitory concentration determination in broth; settings: for MIC50: Salmonella enterica, TYPHIMURIUM
Protocol: A, B) Dose response curves monitoring S. Typhimurium (SL1344) or E. coli (K12) growth from an OD600 of 0.01, normalized to growth in 2% DMSO under the indicated condition. Mean and SEM of at least three biological replicates performed with technical triplicates; curve fit: sigmoidal, 4P L. C-E) Checkerboard assays of S. Typhimurium SL1344 growth from an OD600 of 0.01 in LB for 18 hours with novobiocin (up to 100 μg/mL) and (C) PMB (up to 48 μM), (D) JDI (up to 150 μM), or (E) D66 (up to 150 μM). Growth was normalized to growth in 2% DMSO, with the darkest blue representing 100% growth and white representing 0%.
Minimum inhibitory concentration determination: Overnight LB-grown cultures were diluted in LB or MHB to an optical density (OD600) of 0.01 and distributed into polystyrene 96-well flat-bottom plates (Greiner, 655185). […] The final DMSO concentration was at or below 2%. Where indicated, PMB [0.5 μg/mL] was added prior to D66. Plates were grown at 37° C. with shaking and OD600 was monitored (BioTek Synergy H1 or BioTek Eon). MICs were defined as the concentration at which 95% of growth was inhibited (OD600).

[2] = tested on: S. Typhimurium; assay: Bacterial membrane potential assay with DiSC3(5); settings: mid-log cells in LB with PMB [0.5 μg/mL]; corrected for quenching by D66; JD1 [70 μM]
Protocol: FIG. 3A-F. D66 rapidly perturbs the bacterial cytoplasmic membrane with minor disruption of barrier function. Mid-log phase S. Typhimurium cells grown in LB with 0.5 μg/mL PMB were used for all experiments. A) Cell membrane potential was monitored with the fluorescent dye DiSC3 (5). Cells were treated at time 0 with DMSO, JD1 [70 μM], or D66. Data were normalized to DMSO at time 0 and corrected for the quenching effect of D66 (FIG. 6A, B) B) Cell membrane permeability was monitored by PI fluorescence. Cells were treated at time 0 with DMSO, SDS [0.005%] or D66. Samples were processed at the time points shown. A one-way ANOVA with a Dunnet's multiple comparison test, * P<0.005. C-F) Growth curves and kill-curves of cells treated at time 0 with either DMSO or D66. Culture aliquots were monitored for OD600 (C, E) or plated for enumeration of CFU (D, F). Data are presented as fold change. Mean and SEM of three biological replicates with technical triplicates are shown in all panels.
Bacterial Membrane potential assays: Membrane potential was measured using the potentiometric fluorescent probe DiSC3 (5) (Invitrogen). Mid-log phase cells were diluted to an OD600 of 0.4. […] Plates were monitored (ex650/em680 nm) on a BioTek Synergy H1 plate reader. After baseline fluorescence was recorded, compound was added to the desired final concentration and measurements were recorded for an additional 30 minutes. […]

[3] = tested on: S. aureus (FDA209); assay: Membrane voltage with DiSC3(5) in Gram-positive bacteria; settings: mid-log S. aureus FDA209 in LB
Protocol: A) D66 quenches the fluorescent dye DiSC3 (5) in a dose-dependent manner. Data were normalized to DMSO at time 0. Relative fluorescent units (RFU). Mean and SEM of three biological replicates performed with technical triplicates. B, C) Mid-log phase S. aureus (FDA209) in LB were treated at time 0 with DMSO, gramicidin [2 μg/mL], or D66 (1x MIC95=130 μM). B) Fold change in RFU. Data are normalized to DMSO at time 0. C) Data normalized to account for the quenching effect of D66 on DiSC3 (5) observed in A. Mean and SEM of three biological replicates performed with technical triplicates. D) Bacillus subtilis expressing mNeonGreen-FtsZ at stationary phase in LB were placed on agar pads containing D66 at the indicated concentration (1x MIC95=89 μM). Confocal microscope images were taken after 15 minutes to ascertain whether D66 disrupted the septal localization of FtsZ.

[4] = tested on: S. aureus FDA209; assay: Laurdan generalized polarization membrane fluidity assay; settings: mid-log S. aureus FDA209
Protocol: Mid-log phase S. aureus FDA209 cells were used for all experiments. A) Membrane fluidity was evaluated with a Laurdan generalized polarization (GP) assay. Cells were exposed at time 0 to DMSO, benzyl alcohol (BnOH, a membrane fluidizer [50 mM]), or D66 (1x MIC95=130 μM). Mean and SEM of three biological replicates performed with technical triplicates. B) Membrane permeability was monitored by PI fluorescence. Cells were exposed at time 0 to DMSO, SDS [0.3%], or D66. Samples were processed at the timepoints shown. Mean and SEM of three biological replicates performed with technical triplicates. C) Intracellular pH was monitored with the fluorescent probe BCECF-AM. Cells were exposed at time 0 to DMSO, the protonophore CCCP [100 μM], or D66. Mean and SEM of three biological replicates performed with technical triplicates. D) Intracellular ATP levels measured using the Promega BacTiter-Glo kit after 30 minutes of treatment with DMSO, chloramphenicol (Chlor), or D66. Mean and SEM of three biological replicates performed with technical triplicates. E) Respiration rates of cells incubated with resazurin and treated at time 0 as indicated. Mean and […]

[5] = tested on: staphylococcal biofilm; assay: Staphylococcal biofilm formation; settings: 18 hours in TSB, subinhibitory concentrations
Protocol: Biofilm formation was monitored after 18 hours in TSB with subinhibitory concentrations of DMSO, rifampin (1x MIC95=0.05 μg/mL), vancomycin (1x MIC95=1 μg/mL), or D66 (1x MIC95=130 μM). A-D) Crystal violet staining for accumulated biofilm mass measured at A595. Mean and
SEM of three biological replicates performed with technical triplicates. E-F). Biofilms were stained with Syto 9 (live cells) and PI (damaged/dead cells) and imaged with confocal fluorescent microscopy. Volume of live, dead, and total cell volume was calculated (positive volume=positive voxel; 1 voxel=0.0367 μm3). Asterisks indicate P≤0.05 as determined by one-way ANOVA compared to DMSO. Mean and SDs derived from a minimum of four fields of view each from two biological replicates.

O=C(Nc1cc(Cl)cc(Cl)c1)N1CCCN(Cc2ccccc2)CC1 [D66]
growth inhibition in the presence of polymyxin B nonapeptide (PMBN) ([1]; PMBN [20 μg/mL], MHB): did not enable D66 to inhibit growth | cMIC95 in LB ([1]; S. Typhimurium (SL1344) w/PMB (0.5 ug/mL), LB): 54 µM | cMIC95 in MHB ([1]; S. Typhimurium (SL1344) w/PMB (0.5 ug/mL), MHB): 46 µM | cMIC95 in LB ([1]; S. Typhimurium (SL1344), LB): >150 µM | cMIC95 in MHB ([1]; S. Typhimurium (SL1344), MHB): >150 µM | MIC50 ([1]; S. Typhimurium (SL1344) w/PMB (0.5 ug/mL), LB, read-out: MIC50 in LB): 45 µM and 17 µg/mL | MIC50 ([1]; S. Typhimurium (SL1344) w/PMB (0.5 ug/mL), MHB, read-out: MIC50 in MHB): 40 ± 1 µM | MIC50 ([1]; S. Typhimurium (SL1344), LB, read-out: MIC50 in LB): > 150 µM and > 57 µg/mL | MIC50 ([1]; S. Typhimurium (SL1344), MHB, read-out: MIC50 in MHB): > 150 µM | DiSC3(5) fluorescence (membrane voltage) [2]: rapidly increased the fluorescence of DiSC3 (5) in a dose-dependent manner | voltage across the bacterial cytoplasmic membrane [3]: rapidly disrupts voltage across the bacterial cytoplasmic membrane | membrane fluidity [4]: rapidly increases membrane fluidity | staphylococcal biofilm formation [5]: inhibits staphylococcal biofilm formation
